According to PMC5066224, “A Novel Resveratrol Based Tubulin Inhibitor Induces Mitotic Arrest and Activates Apoptosis in Cancer Cells” (Scientific Reports, 2016):

Key:
A549 = experiment: Trypan blue dye exclusion cell viability assay; assay type: cell-based; conditions: Homo sapiens, 48 h
Protocol: (§1) The effect of SS28 on viability of CEM, Reh, Nalm6, SUDHL8, Molt4, A549, HeLa 293T, mouse embryonic fibroblast (MEF) and PBMC was determined by trypan blue dye exclusion assay as described previously. Briefly, cells (0.75 × 10^5 cells/ml) were treated with increasing concentrations of SS28 (1, 5, 10 and 20, μM) for 48 and 72 h. DMSO treated cells were used as the vehicle control. Cells were harvested and subjected to trypan blue assay. Data from a minimum of three independent experiments is presented as a histogram with error bars.

CEM = experiment: Trypan blue dye exclusion cell viability assay; assay type: cell-based; conditions: Homo sapiens, CCRF-CEM, 48 h
Protocol: as §1

HeLa cells = experiment: Trypan blue dye exclusion cell viability assay; assay type: cell-based; conditions: Homo sapiens, 48 h
Protocol: as §1

Molt4 = experiment: Trypan blue dye exclusion cell viability assay; assay type: cell-based; conditions: Homo sapiens, MOLT-4, 48 h
Protocol: as §1

Nalm6 = experiment: Trypan blue dye exclusion cell viability assay; assay type: cell-based; conditions: Homo sapiens, NALM-6, 48 h
Protocol: as §1

Reh = experiment: Trypan blue dye exclusion cell viability assay; assay type: cell-based; conditions: Homo sapiens, 48 h
Protocol: as §1

SUDHL8 = experiment: Trypan blue dye exclusion cell viability assay; assay type: cell-based; conditions: Homo sapiens, SU-DHL-8, 48 h
Protocol: as §1

[1] = system: mouse embryonic fibroblast cells (MEF); experiment: Trypan blue dye exclusion cell viability assay; assay type: cell-based; conditions: 48 h
Protocol: as §1

[2] = system: peripheral blood mononuclear cells (PBMC); experiment: Trypan blue dye exclusion cell viability assay; assay type: cell-based; conditions: 48 h
Protocol: as §1

CEM cells [3] = experiment: Cell cycle phase distribution by flow cytometry; assay type: cell-based, Human; conditions: 2 μM, after 12 h
Protocol: Cell cycle analysis by flow cytometry was performed as previously described. Briefly, 75,000 cells/ml (A549) were seeded in 6 well plates and grown in serum free medium for 18 h. After synchronisation, the cells were treated with 5 μM of SS28 (6, 12, 18, 24 and 30 h) and cells were processed as described before. Similarly, CEM cells (75,000 cells/ml) were treated with SS28 (2 μM) and harvested (6, 12, 18, 24 and 30 h) and processed. Following fixation, cells were resuspended in PBS and stained with propidium iodide and evaluated in a flow cytometer (FACS Calibur, Becton Dickinson) using Cell Quest Pro software using excitation 488 nm laser and emission at 560/570 nm. A minimum of 10,000 cells were acquired per sample and histograms were analysed using WinMDI 2.8 software.

CEM cells [4] = experiment: Intracellular ROS production (H2DCFDA, flow cytometry); assay type: cell-based, Human; conditions: 5 to 60 min
Protocol: Intracellular ROS generation in cells was assessed using the oxidation-sensitive fluorescent probe 2,7-dichlorodihydro fluorescein diacetate (H2DCFDA) as previously described. CEM cells were treated with SS28 (5 μM) for 5, 10, 15, 30 and 60 min, harvested, washed and incubated with H2DCFDA (30 min at 37 °C) and then fluorescence intensity was analyzed by flow cytometry. H2O2 was used as the positive control.

CEM cells [5] = experiment: Annexin V-FITC/PI double-staining assay; assay type: cell-based, Human; conditions: 48 h; for cells in early apoptotic stage: Annexin positive; for cells in late apoptosis: Annexin/PI positive
Protocol: When cells undergo apoptosis, the integrity of the cell membrane is disrupted and phosphatidyl serine is exposed. Annexin V conjugated with FITC (apoptosis detection kit Santacruz, USA) has a selective affinity for phosphatidyl serine, based on which early and late apoptotic cells can be detected.
CEM cells (1 × 10^5 cells/ml) were treated with SS28 (5 and 10 μM) for 48 h. Cells were then harvested, washed with cold PBS and used for annexin-PI double-staining assay. Samples were resuspended in 1x binding buffer and incubated with Annexin V-FITC ([…]) and PI (0.05 mg/ml) and analyzed by flow cytometry (FACS calibur) using CellQuest pro software at an excitation with 488 nm laser and emission at 530 nm[55]. A minimum of 10,000 cells were acquired for each sample and illustrated as dot plot using Flowing software.

CEM cells [6] = experiment: Immunoblotting of cell cycle and apoptotic proteins; assay type: cell-based, Human; conditions: 5 μM, 24, 48 and 72 h
Protocol: Cell lysate was prepared after treating with SS28 (5 μM for 24, 48 and 72 h) from CEM and A549 cell lines. In brief, cells were harvested, washed with PBS, resuspended in lysis buffer (RIPA, 25 mM Tris (pH 7.6), 150 mM NaCl, 1% NP-40, 1% sodium deoxycholate and 0.1% SDS) containing protease inhibitors. The protein lysate was cleared by centrifugation (14,000 rpm, for 15 min). The protein concentration in the supernatant was determined using the Bradford’s assay.
For western blot analysis, ~40 μg proteins were resolved over 8–10% SDS–polyacrylamide gel[60][61][62]. Following gel electrophoresis, proteins were transferred to PVDF membrane (Millipore, USAQ9). The primary antibodies used were against Caspase 3, Caspase 9, p73, p53, KU70, KU80, Cyclin B1, CDK6, PARP1 and Actin (Santa Cruz Biotechnology, USA). The membrane was incubated with appropriate HRP-conjugated secondary antibody (2 h at 4° C). The blots were developed using chemiluminescent solution (Immobilon^TM western, Millipore) and scanned by gel documentation system (LAS 3000, FUJI, Japan). Blots were stripped subsequently as per standard protocols and reprobed with anti β-Actin antibody.

[7] = Toxicity evaluation in normal mice (body weight, haematology, liver and kidney function); assay type: in vivo, BALB/c mice; conditions: 9 doses
Protocol: A total number of 10 BALB/c mice were used for the study, of which 5 animals served as normal control while, remaining 5 were treated with SS28 (15 mg/kg). Body weight of each animal was monitored throughout the experiment and average body weight was calculated on 21st day of treatment. In order to evaluate the effect of SS28 on physiological functions, blood was collected (21st day) and analysed as described earlier. The blood […] was analyzed using Neubauer’s chamber, and mean values of total red blood cells (RBCs) and white blood cells (WBCs) were determined. Serum was separated and kidney and liver function tests were performed for each animal, to determine alkaline phosphatase (ALP), […] (ALT), creatinine and urea levels as described earlier. Values are presented as mean ± SEM for both the controls and SS28 administered mice.

[8] = normal BALB/c mice, 15 mg/kg, 21st day, mean ± SEM

With `COc1cc(/C=C/c2ccc(C)cc2)cc(OC)c1OC` [SS28, (E)-1,2,3-trimethoxy-5-(4-methylstyryl)benzene] the IC50 (A549) was 5.2 µM, the IC50 (CEM) was 2.6 µM and the IC50 (HeLa cells) was 32.4 µM. It also gave an IC50 (Molt4) of 5.1 µM, an IC50 (Nalm6) of 21 µM and an IC50 (Reh) of 7.9 µM. The IC50 (SUDHL8) was 2.7 µM, the IC50 [1] was 5 µM and the IC50 [2] was greater than 35 µM. For the same compound, the cell cycle distribution (CEM cells [3]) was “distinct G2/M arrest”, the “intracellular ROS production” value (CEM cells [4]) was “did not show generation of ROS” and the “cells in early apoptotic stage” value (CEM cells [5]; 5 μM) was 28.2%. For the same compound, the “cells in late apoptosis” value (CEM cells [5]; 5 μM) was 39.8%, the “cells in early apoptotic stage” value (CEM cells [5]; 10 μM) was 32.9% and the “cells in late apoptosis” value (CEM cells [5]; 10 μM) was 46.9%. The necrosis (CEM cells [5]; 5 and 10 μM) was “did not observe any cells undergoing necrosis”, the “Caspase 3” value (CEM cells [6]) was “showed activation” and the “Caspase 9” value (CEM cells [6]) was “increase in the cleaved Caspase 9 level”. For the same compound, the PARP1 (CEM cells [6]) was “activation of PARP1”, the “expression level of Cdk6” value (CEM cells [6]) was “increased at 24 h followed by a decrease at 48 and 72 h” and the “expression levels of p53” value (CEM cells [6]) was “upregulation of p53 at 24 h time point followed by a decrease in the later time points”. The “level of Cyclin B1” value (CEM cells [6]) was “increased at 48 h time point in CEM cells followed by a decrease at 72 h”, the body weight ([7]; normal BALB/c mice, 15 mg/kg oral) was “no significant difference” and the “number of RBCs and WBCs versus control” value ([7]; normal BALB/c mice, 15 mg/kg, 21st day) was “no significant difference”. For the same compound, the RBC [7, 8] was 6.43 ± 1.32 10^6 cells/mm^3, the WBC [7, 8] was 3.5 ± 0.99 10^3 cells/mm^3 and the “ALP level versus control” value ([7]; serum, 15 mg/kg, 21st day) was “slightly higher”. The “level of ALT versus control” value ([7]; serum, 15 mg/kg, 21st day) was “no significant difference” and the “levels of creatinine and urea in the serum versus control” value ([7]; serum, 15 mg/kg, 21st day) was “no significant difference”.
